“And” between values parts separate entries of the source, which are not always exact repeats. Identical values can stand only once. Toxic doses and inconclusive results are not listed.
Tested on: L1210 leukemia ip in BDF1 mice, survival T/C
Assay: NCI In Vivo Anticancer Drug Screen. Data for tumor model L1210 Leukemia (intraperitoneal) in B6D2F1 (BDF1) mice
Details: endpoint: mean survival time, higher = longer survival
Procedure, shortened: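 Transplanted-tumor mice were given test agent; controls received vehicle only. Survival readings from the two groups were divided (treated over control).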

[1] = dose: 50.0 mg/kg/injection, schedule: Q01DX009 (ip), vehicle: saline
[2] = dose: 100.0 mg/kg/injection, schedule: Q04DX003 (ip), vehicle: Klucel (hydroxypropylcellulose) (HPC)
[3] = dose: 200.0 mg/kg/injection, schedule: Q04DX003 (ip), vehicle: Klucel (hydroxypropylcellulose) (HPC)

Question: Which T/C (dose: 1.0 mg/kg/injection, schedule: Q01DX001 (ip), vehicle: carboxymethylcellulose (CMC)) does the source give for NP(=O)(N1CC1)N1CC1 here?
Answer: 110 % of control

Question: What about the T/C (dose: 1.0 mg/kg/injection, schedule: Q01DX015 (ip), vehicle: carboxymethylcellulose (CMC)) of the same compound?
Answer: 116 % of control

Question: What about the T/C (dose: 2.0 mg/kg/injection, schedule: Q01DX001 (ip), vehicle: carboxymethylcellulose (CMC)) of the same compound?
Answer: 124 % of control

Question: What about the T/C (dose: 4.0 mg/kg/injection, schedule: Q01DX001 (ip), vehicle: carboxymethylcellulose (CMC)) of the same compound?
Answer: 110 % of control

Question: What about the T/C (dose: 15.0 mg/kg/injection, schedule: Q01DX001 (ip), vehicle: carboxymethylcellulose (CMC)) of the same compound?
Answer: 150 % of control

Question: What about the T/C (dose: 30.0 mg/kg/injection, schedule: Q01DX001 (ip), vehicle: carboxymethylcellulose (CMC)) of the same compound?
Answer: 186 % of control

Question: O=S(=O)(Nc1ccccc1)c1ccccc1C#Cc1ccccc1 was tested. Which T/C (dose: 100.0 mg/kg/injection, schedule: Q01DX001 (ip), vehicle: steriod suspending solution) did it give?
Answer: 105 % of control

Question: What about the T/C (dose: 200.0 mg/kg/injection, schedule: Q01DX001 (ip), vehicle: steriod suspending solution) of the same compound?
Answer: 100 % of control

Question: What about the T/C (dose: 400.0 mg/kg/injection, schedule: Q01DX001 (ip), vehicle: steriod suspending solution) of the same compound?
Answer: 97 % of control

Question: For NC(N)=Nc1nc2ccccc2s1, which T/C (dose: 12.5 mg/kg/injection, schedule: Q01DX009 (ip), vehicle: saline) is on record?
Answer: 94 % of control

Question: What about the T/C (dose: 25.0 mg/kg/injection, schedule: Q01DX009 (ip), vehicle: saline) of the same compound?
Answer: 100 % of control

Question: What about the T/C (dose: 25.0 mg/kg/injection, schedule: Q04DX003 (ip), vehicle: Klucel (hydroxypropylcellulose) (HPC)) of the same compound?
Answer: 103 % of control

Question: And the T/C [1]?
Answer: 96 % of control

Question: And the T/C (dose: 50.0 mg/kg/injection, schedule: Q04DX003 (ip), vehicle: Klucel (hydroxypropylcellulose) (HPC))?
Answer: 100 % of control

Question: Which T/C (dose: 75.0 mg/kg/injection, schedule: Q01DX009 (ip), vehicle: saline with Tween-80) does the source give for COC(=N)Cc1ccccc1 here?
Answer: 100 % of control

Question: And the T/C (dose: 150.0 mg/kg/injection, schedule: Q01DX009 (ip), vehicle: saline with Tween-80)?
Answer: 101 % of control

Question: What about the T/C (dose: 300.0 mg/kg/injection, schedule: Q01DX009 (ip), vehicle: saline with Tween-80) of the same compound?
Answer: 101 % of control

Question: With O=C(O)C(Br)CN1C(=O)c2ccccc2C1=O (stereo not given) as the compound, how does the T/C [1] read?
Answer: 91 % of control

Question: And the T/C (dose: 100.0 mg/kg/injection, schedule: Q01DX009 (ip), vehicle: saline)?
Answer: 95 % of control

Question: What about the T/C (dose: 200.0 mg/kg/injection, schedule: Q01DX009 (ip), vehicle: saline) of the same compound?
Answer: 91 % of control

Question: For CCOC(=O)NCC(CCN1CCCCC1)(c1cccc2ccccc12)C(C)C (stereo not given), which T/C [2] is on record?
Answer: 100 % of control

Question: What about the T/C [3] of the same compound?
Answer: 88 % of control

Question: With c1ccc(-n2ncnn2)cc1 as the compound, how does the T/C (dose: 100.0 mg/kg/injection, schedule: Q01DX001 (ip), vehicle: saline) read?
Answer: 98 % of control

Question: And the T/C (dose: 200.0 mg/kg/injection, schedule: Q01DX001 (ip), vehicle: saline)?
Answer: 95 % of control

Question: And the T/C (dose: 400.0 mg/kg/injection, schedule: Q01DX001 (ip), vehicle: saline)?
Answer: 90 % of control

Question: With Cc1cc(Cl)ccc1NS(=O)(=O)c1ccccc1 as the compound, how does the T/C (dose: 100.0 mg/kg/injection, schedule: Q01DX009 (ip), vehicle: Klucel (hydroxypropylcellulose) (HPC)) read?
Answer: 107 % of control

Question: And the T/C [2]?
Answer: 98 % of control

Question: And the T/C (dose: 200.0 mg/kg/injection, schedule: Q01DX009 (ip), vehicle: Klucel (hydroxypropylcellulose) (HPC))?
Answer: 98 % of control

Question: What about the T/C [3] of the same compound?
Answer: 103 % of control

Question: And the T/C (dose: 400.0 mg/kg/injection, schedule: Q01DX009 (ip), vehicle: Klucel (hydroxypropylcellulose) (HPC))?
Answer: 96 % of control

Question: And the T/C (dose: 400.0 mg/kg/injection, schedule: Q04DX003 (ip), vehicle: Klucel (hydroxypropylcellulose) (HPC))?
Answer: 97 % of control

Question: Which T/C (dose: 100.0 mg/kg/injection, schedule: Q04DX003 (ip), vehicle: saline with Tween-80) does the source give for NCNc1nc(NCN)nc(N(CN)CN)n1 here?
Answer: 92 % of control

Question: What about the T/C (dose: 200.0 mg/kg/injection, schedule: Q04DX003 (ip), vehicle: saline with Tween-80) of the same compound?
Answer: 88 % of control

Question: What about the T/C (dose: 400.0 mg/kg/injection, schedule: Q04DX003 (ip), vehicle: saline with Tween-80) of the same compound?
Answer: 88 % of control

Question: What does the source list for Nc1[nH]c(=S)[nH]c(=O)c1NC=O?
Answer: T/C (dose: 16.0 mg/kg/injection, schedule: Q01DX Z (ip), vehicle: methylcellulose (MC)): 103 % of control; T/C (dose: 31.0 mg/kg/injection, schedule: Q01DX Z (ip), vehicle: methylcellulose (MC)): 106 % of control; T/C (dose: 62.0 mg/kg/injection, schedule: Q01DX Z (ip), vehicle: methylcellulose (MC)): 108 % of control; T/C (dose: 125.0 mg/kg/injection, schedule: Q01DX Z (ip), vehicle: methylcellulose (MC)): 96 % of control and 97 % of control; T/C (dose: 250.0 mg/kg/injection, schedule: Q01DX Z (ip), vehicle: methylcellulose (MC)): 100 % of control; T/C (dose: 500.0 mg/kg/injection, schedule: Q01DX Z (ip), vehicle: methylcellulose (MC)): 112 % of control

Source: PubChem BioAssay AID248 (DTP/NCI, 2004)
